We go through six compounds from the NIST ThermoML archive (doi:10.1021/acs.jced.6b00460).

The structures appear in SMILES notation. Numbers after ± are expanded uncertainties.

For this data set the following is noted: 101.33 kPa, Liquid; for speed of sound: Sing-around technique in a fixed-path interferometer; for mass density: Vibrating tube method.

Turning to `CCCCCC[n+]1ccc(C)cc1.[Br-]` [1-hexyl-4-methylpyridinium bromide], for the setting “308.15 K”, the speed of sound (in general, how fast a sound wave travels through the sample) came to 1589.8 ± 2.7 m/s and the mass density (in general, mass per unit of volume) came out at 1214.46 ± 2.3 kg/m3. Further, under “318.15 K”, the speed of sound turned out to be 1558.7 ± 2.7 m/s and the mass density came to 1207.88 ± 2.3 kg/m3.

`CCCCCC[n+]1ccccc1.[Br-]` [1-hexylpyridinium bromide]: the speed of sound was determined as 1592.5 ± 2.7 m/s (308.15 K) and 1557.2 ± 2.7 m/s (318.15 K). The mass density by setting is: (308.15 K) 1235.72 ± 2.4 kg/m3; (318.15 K) 1229.23 ± 2.3 kg/m3.

On to `CCCCCC[n+]1ccccc1.[Cl-]` [1-hexylpyridinium chloride], for which the speed of sound (308.15 K) is given as 1570.7 ± 2.7 m/s and the speed of sound (318.15 K) was 1549.2 ± 2.7 m/s. Moreover, the mass density runs as follows: (308.15 K) 1146.65 ± 2.3 kg/m3; (318.15 K) 1142.77 ± 2.3 kg/m3.

With `CCCCCCCC[n+]1ccccc1.[Br-]` [1-octylpyridinium bromide], under “308.15 K”, the speed of sound is given as 1507.1 ± 2.6 m/s and the mass density was 1168.14 ± 2.3 kg/m3. Besides, under “318.15 K”, the speed of sound turned out to be 1478.3 ± 2.6 m/s and the mass density is on record as 1161.81 ± 2.3 kg/m3.

Regarding `CCCCCCCC[n+]1ccc(C)cc1.[Cl-]` [4-methyl-1-octylpyridinium chloride], for the setting “308.15 K”, the speed of sound stood at 1445.5 ± 2.6 m/s and the mass density was found to be 1107.79 ± 2.2 kg/m3. Also, for the setting “318.15 K”, the speed of sound is listed as 1411.7 ± 2.6 m/s and the mass density is given as 1102.01 ± 2.2 kg/m3.

For `CCCCCCCC[n+]1ccccc1.[Cl-]` [N-octylpyridinium chloride], for the setting “308.15 K”, the speed of sound was found to be 1482.6 ± 2.6 m/s and the mass density was found to be 1128.78 ± 2.2 kg/m3. In addition, for the setting “318.15 K”, the speed of sound was found to be 1448.6 ± 2.6 m/s and the mass density amounted to 1123.06 ± 2.2 kg/m3.
